Biological target: P. falciparum apicoplast DNA polymerase (Pf-apPOL) (Plasmodium falciparum, UniProt Q8ILY1)
Experiment: Fluorescence-based high-throughput DNA polymerase assay (molecular beacon), primary screen and dose-response
Format: biochemical
Procedure: The HT assay employs a molecular beacon, a stem-loop DNA template with a Cy3 dye and the Black Hole Quencher on the 3′ and 5′ ends of the DNA, respectively. Pf-apPOL concentration is based on a calculated absorptivity of ε280 = 56750 M^−1 cm^−1. Reactions were carried out at 25 °C, using Corning 3575 […] (well-volume, 20 µL). Assays testing for compound inhibition composed of reaction buffer (pH 7.9 in 50 mM potassium acetate, 20 mM Tris-acetate and 10 mM magnesium acetate), Pf-apPOL (20 nM), DNA substrate (20 nM), dNTPs (6 µM), and compound (10 µM in DMSO). The DNA and nucleotide substrates (dNTPs) were at concentrations of 20 nM and 6 µM, respectively, in the assay. Pf-apPOL was incubated in the reaction buffer with dNTPs and the compound of interest (10 µM, in the assay) at 25 °C for 10 min. The DNA substrate was then added and the reaction was allowed to proceed for 90 min at 25 °C.
Each assay plate contained 16 negative controls (no Pf-apPOL, DMSO present) and 16 positive controls (Pf-apPOL present, no DMSO). The fluorescence of each well was determined using a BioTek Synergy Neo fluorescence plate reader using excitation and emission wavelengths of 555 and 570 nm, respectively.
In the above, Min is the average of fluorescence emission of the negative controls (substrate only), Max the average fluorescence emission from the positive controls (enzyme + substrate), and Test the emission from the assays in the presence of compounds (enzyme + compound + substrates). […] […] The IC50 of each compound was determined using Equation (2): (2) IC50= Vmax/(1+ (I/IC50)^n)
In the above, n measures cooperativity, with n > 1 indicating synergistic binding of more than a single molecule of the compound.
To identify apPOL inhibitors we utilised our previously developed high-throughput DNA polymerase assay. The HT assay is based on a molecular beacon DNA template that forms a stem-loop with a Cy3 dye and the Black Hole Quencher on the 3′ and 5′ ends of the DNA, respectively. DNA polymerase activity extends an annealed primer through the stem region, displacing the fluorophore from the quencher, thereby increasing its fluorescence (Figure 1(A)). The assay accurately recapitulates the kinetic behaviour of apPOL, as measured through more conventional low-throughput gel-based assays. The Z′ factor for the assay described here was 0.9 across all plates (data not shown).
Figure 1. High-throughput screening. (A) The fluorescent-based DNA polymerase assay used to screen the compound libraries. The DNA template strand is a hairpin loop with a primer annealed to the loop. The 3’ end of the primer is 11 bases away from the 6 bp duplex. Strand displacement activity of the DNA polymerase separates the Cy3 dye from the Black hole quencher leading to an increase in fluorescent signal. (B) The high-throughput assay workflow. The DNA polymerase is incubated with […] compound for 10 min prior to addition of the hairpin substrate. The reaction is quenched at 3 different time points and the fluorescent signal is measured and % inhibition is determined using the provided equation.

Sequence of P. falciparum apicoplast DNA polymerase (Pf-apPOL) (Q8ILY1 entry or part of it): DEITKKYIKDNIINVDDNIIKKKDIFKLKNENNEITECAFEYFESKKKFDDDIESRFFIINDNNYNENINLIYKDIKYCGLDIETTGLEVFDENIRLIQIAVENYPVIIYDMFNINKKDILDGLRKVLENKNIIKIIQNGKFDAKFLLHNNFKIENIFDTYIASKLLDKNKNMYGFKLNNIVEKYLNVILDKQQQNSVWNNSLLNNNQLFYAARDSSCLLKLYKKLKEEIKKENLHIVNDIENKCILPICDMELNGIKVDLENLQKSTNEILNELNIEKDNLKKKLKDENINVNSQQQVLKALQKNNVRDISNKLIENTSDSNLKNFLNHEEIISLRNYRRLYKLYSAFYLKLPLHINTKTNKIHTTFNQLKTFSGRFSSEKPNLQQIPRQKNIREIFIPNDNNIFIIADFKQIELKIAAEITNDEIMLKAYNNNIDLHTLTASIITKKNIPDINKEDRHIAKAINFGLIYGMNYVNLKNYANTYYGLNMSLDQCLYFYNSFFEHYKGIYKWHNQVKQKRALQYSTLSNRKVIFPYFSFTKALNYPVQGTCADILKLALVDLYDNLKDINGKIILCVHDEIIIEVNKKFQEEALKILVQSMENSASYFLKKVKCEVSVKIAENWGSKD

Cc1cccc(C2=N/C(=C\c3ccc([N+](=O)[O-])o3)C(=O)O2)c1 [KU0058960]
DNA Pol ('DNA Pol' of the 186 hits list (screen value); 90 min, 10 µM): 79
% inhibition Apo pol 10' (DRC-1; 10'; conc 2.5): 31.9938%
% inhibition Apo pol 10' (DRC-1; 10'; conc 5): 37.9558%
% inhibition Apo pol 10' (DRC-1; 10'; conc 10): 61.5267%
% inhibition Apo pol 10' (DRC-1; 10'; conc 20): 80.2962%
% inhibition Apo pol 10' (DRC-1; 10'; conc 40): 86.7912%
% inhibition Apo pol 10' (DRC-1; 10'; conc 80): 87.9713%
% inhibition Apol 90' (DRC-1; 90'; conc 2.5): 16.0415%
% inhibition Apol 90' (DRC-1; 90'; conc 5): 19.2427%
% inhibition Apol 90' (DRC-1; 90'; conc 10): 39.4275%
% inhibition Apol 90' (DRC-1; 90'; conc 20): 66.6869%
% inhibition Apol 90' (DRC-1; 90'; conc 40): 86.2407%
% inhibition Apol 90' (DRC-1; 90'; conc 80): 92.5412%
% inhibition apPOL 180' (DRC-1; 180'; conc 2.5): 6.3408%
% inhibition apPOL 180' (DRC-1; 180'; conc 5): 6.493%
% inhibition apPOL 180' (DRC-1; 180'; conc 10): 24.2065%
% inhibition apPOL 180' (DRC-1; 180'; conc 20): 52.0492%
% inhibition apPOL 180' (DRC-1; 180'; conc 40): 83.7016%
% inhibition apPOL 180' (DRC-1; 180'; conc 80): 94.2271%
% inhibition Apo pol 5' (DRC-2; 5'; conc 2.5): 15%
% inhibition Apo pol 5' (DRC-2; 5'; conc 5): 25%
% inhibition Apo pol 5' (DRC-2; 5'; conc 10): 37%
% inhibition Apo pol 5' (DRC-2; 5'; conc 20): 45%
% inhibition Apo pol 5' (DRC-2; 5'; conc 40): 51%
% inhibition Apo pol 5' (DRC-2; 5'; conc 80): 48%
% inhibition Apo pol 5' (DRC-2; 5'; concentration 10): 37%
% inhibition Apol 40' (DRC-2; 40'; conc 2.5): 12%
% inhibition Apol 40' (DRC-2; 40'; conc 5): 23%
% inhibition Apol 40' (DRC-2; 40'; conc 10): 37%
% inhibition Apol 40' (DRC-2; 40'; conc 20): 50%
% inhibition Apol 40' (DRC-2; 40'; conc 40): 64%
% inhibition Apol 40' (DRC-2; 40'; conc 80): 69%
% inhibition Apol 40' (DRC-2; 40'; concentration 10): 37%
% inhibition ApPOL 90' (DRC-2; 90'; conc 2.5): 9%
% inhibition ApPOL 90' (DRC-2; 90'; conc 5): 19%
% inhibition ApPOL 90' (DRC-2; 90'; conc 10): 33%
% inhibition ApPOL 90' (DRC-2; 90'; conc 20): 47%
% inhibition ApPOL 90' (DRC-2; 90'; conc 40): 66%
% inhibition ApPOL 90' (DRC-2; 90'; conc 80): 74%
% inhibition apPOL 180' (DRC-2; 180'; conc 2.5): 1.68%
% inhibition apPOL 180' (DRC-2; 180'; conc 5): 7%
% inhibition apPOL 180' (DRC-2; 180'; conc 10): 20%
% inhibition apPOL 180' (DRC-2; 180'; conc 20): 36%
% inhibition apPOL 180' (DRC-2; 180'; conc 40): 63%
% inhibition apPOL 180' (DRC-2; 180'; conc 80): 78%
DNA Pol (primary screen value, "DNA Pol"; 90 min, 10 µM): 79

O=C(Nc1nnc(-c2ccno2)o1)c1ccc2c(c1)OCO2 [KU0171343]
DNA Pol (186 hits, value of the hit list (primary screen); unit not given; 90 min, 10 µM): 40
% inhibition Apo pol 10' (DRC-1; 10'; concentration 2.5): 0.3504%
% inhibition Apo pol 10' (DRC-1; 10'; concentration 5): 4.323%
% inhibition Apo pol 10' (DRC-1; 10'; concentration 10): 19.3402%
% inhibition Apo pol 10' (DRC-1; 10'; concentration 20): 32.3938%
% inhibition Apo pol 10' (DRC-1; 10'; concentration 40): 61.4938%
% inhibition Apo pol 10' (DRC-1; 10'; concentration 80): 79.918%
% inhibition Apol 90' (DRC-1; 90'; concentration 2.5): -7.247%
% inhibition Apol 90' (DRC-1; 90'; concentration 5): -7.662%
% inhibition Apol 90' (DRC-1; 90'; concentration 10): 0.8301%
% inhibition Apol 90' (DRC-1; 90'; concentration 20): 8.774%
% inhibition Apol 90' (DRC-1; 90'; concentration 40): 33.5392%
% inhibition Apol 90' (DRC-1; 90'; concentration 80): 60.7945%
% inhibition apPOL 180' (DRC-1; 180'; concentration 2.5): -15.466%
% inhibition apPOL 180' (DRC-1; 180'; concentration 5): -16.6627%
% inhibition apPOL 180' (DRC-1; 180'; concentration 10): -10.0119%
% inhibition apPOL 180' (DRC-1; 180'; concentration 20): -7.297%
% inhibition apPOL 180' (DRC-1; 180'; concentration 40): 11.9639%
% inhibition apPOL 180' (DRC-1; 180'; concentration 80): 37.6873%
% inhibition Apo pol 5' (DRC-2, 5', concentration 2.5): 4.65%
% inhibition Apo pol 5' (DRC-2, 5', concentration 5): 2.76%
% inhibition Apo pol 5' (DRC-2, 5', concentration 10): 18%
% inhibition Apo pol 5' (DRC-2, 5', concentration 20): 19%
% inhibition Apo pol 5' (DRC-2, 5', concentration 40): 33%
% inhibition Apo pol 5' (DRC-2, 5', concentration 80): 26%
% inhibition Apol 40' (DRC-2, 40', concentration 2.5): -1.21%
% inhibition Apol 40' (DRC-2, 40', concentration 5): -4.25%
% inhibition Apol 40' (DRC-2, 40', concentration 10): 14%
% inhibition Apol 40' (DRC-2, 40', concentration 20): 14%
% inhibition Apol 40' (DRC-2, 40', concentration 40): 39%
% inhibition Apol 40' (DRC-2, 40', concentration 80): 51%
% inhibition ApPOL 90' (DRC-2, 90', concentration 2.5): -3.2%
% inhibition ApPOL 90' (DRC-2, 90', concentration 5): -8%
% inhibition ApPOL 90' (DRC-2, 90', concentration 10): 11%
% inhibition ApPOL 90' (DRC-2, 90', concentration 20): 10%
% inhibition ApPOL 90' (DRC-2, 90', concentration 40): 36%
% inhibition ApPOL 90' (DRC-2, 90', concentration 80): 55%
% inhibition apPOL 180' (DRC-2, 180', concentration 2.5): -8%
% inhibition apPOL 180' (DRC-2, 180', concentration 5): -14%
% inhibition apPOL 180' (DRC-2, 180', concentration 10): 1.55%
% inhibition apPOL 180' (DRC-2, 180', concentration 20): 0.368%
% inhibition apPOL 180' (DRC-2, 180', concentration 40): 25%
% inhibition apPOL 180' (DRC-2, 180', concentration 80): 51%
% inhibition Apol 40' (DRC-2; 40'; concentration 10): 14%
% inhibition Apol 40' (DRC-2; 40'; concentration 20): 14%
% inhibition Apol 40' (DRC-2; 40'; concentration 80): 51%
% inhibition ApPOL 90' (DRC-2; 90'; concentration 5): -8%
% inhibition apPOL 180' (DRC-2; 180'; concentration 2.5): -8%
% inhibition apPOL 180' (DRC-2; 180'; concentration 80): 51%
DNA Pol (primary screen value, 'DNA Pol' only; 90 min, 10 µM): 40

Cc1ccc(NC(=O)Cn2ccc3c(=O)[nH]ccc32)cc1 [Molecule 50]
IC50 (supplemental file 2, sheet IC50 nontoxic compounds; Pf-apPOL): 13.7 µM
